Earlier results on 15 compounds are cited in patent publication US11129554B2, “Sweat monitoring and control of drug delivery” (University Of Cincinnati, priority 2014, dated 2021).

For data set [1] the following is noted: in vivo.
The conditions of data set [2]: dye clearance tests.

As usually defined, the half-life is how long it takes for the measured level to halve. As for `COc1ccc2c(c1)[C@]13CCCC[C@@H]1[C@H](C2)N(C)CC3` [DM, Dextromethorphan], in data set [1], the half-life was 2 to 4 h.

In the case of `CN1C(=O)CC[C@H]1c1cccnc1` [cotinine], in data set [1], the half-life entry is recorded as “about 20 hours”.

For `CC(C)NCC(O)c1ccc(NS(C)(=O)=O)cc1` [Sotalol D-isomer, Sotalol], the “beta-blocking activity” value in the data set with beta-adrenoceptors was “no beta-blocking activity”. `COc1ccccc1OCCNCC(O)COc1cccc2[nH]c3ccccc3c12` (stereo not drawn) [Carvedilol S(−) isomer, Carvedilol]: the “alpha-blocking activity” value in the data set with alpha-blocking is “approximately equally alpha-blocking potency”. Also, in the data set on beta-adrenoceptors, the “beta-blocking activity” value is reported as “nonselective beta-adrenoceptor blocker”.

With `OC(CNCC(O)C1CCc2cc(F)ccc2O1)C1CCc2cc(F)ccc2O1` (stereo not shown) [Nebivolol], the “beta-blocking activity” value with beta-adrenoceptors was “highly selectively beta-1-blocking effects”. In the case of `CC(C)NCC(O)c1ccc(NS(C)(=O)=O)cc1` [Sotalol L-isomer, Sotalol], the “beta-blocking activity” value in the data set with beta-adrenoceptors is listed as “has beta-blocking activity”. As to `CC(CCc1ccccc1)NCC(O)c1ccc(O)c(C(N)=O)c1` [Labetalol (S, S) isomer, Labetalol], the “beta-blocking activity” value with beta-adrenoceptors was “relatively inactive”. Take `CC(CCc1ccccc1)NCC(O)c1ccc(O)c(C(N)=O)c1` [Labetalol (R, S) isomer, Labetalol]: in the data set on beta-adrenoceptors, the “beta-blocking activity” value is “relatively inactive”. On to `COc1ccccc1OCCNCC(O)COc1cccc2[nH]c3ccccc3c12` (single isomer, unassigned) [Carvedilol R(+) isomer, Carvedilol], for which, in the data set on alpha-blocking, the “alpha-blocking activity” value was “approximately equally alpha-blocking potency”. `CC(CCc1ccccc1)NCC(O)c1ccc(O)c(C(N)=O)c1` [Labetalol (R, R) isomer, Labetalol]: in the data set on beta-adrenoceptors, the “beta-blocking activity” value was “potent beta-blocker”.

For `CC(C)NC[C@H](O)COc1cccc2ccccc12` [1-Propranolol], in the data set on beta-adrenoceptors, the “beta-blocking activity” value is recorded as “has beta-adrenoceptors blocking action”. In the case of `CC(CCc1ccccc1)NCC(O)c1ccc(O)c(C(N)=O)c1` [Labetalol (S, R) isomer, Labetalol], in the data set on alpha-blocking, the “alpha-blocking activity” value was “potent alpha-blocker”. On to carboxyethyl-hydroxychroman [CEHC], for which the “resolution of excretion in sweat” value in data set [2] was 2 to 3 min.

As to S-Timolol, the “alpha-blocking activity” value with alpha-blocking is reported as “more a potent alpha-blocker than R-timolol”. Turning to `CC(C)NC[C@@H](O)COc1cccc2ccccc12` [d-propranolol], the “beta-blocking activity” value in the data set with beta-adrenoceptors is “inactive”.
